Experimental data from patent publication US8044201B2, “Stem cell cultures” (The Scripps Research Institute, priority 2008, dated 2011).
Entries after “also recorded” stand apart in the source; their conditions may differ.

Assays:
hESCs [1] = experiment: ALP positive colony formation by dissociated hESCs (clonal / low-density survival assay); type: cell-based, human; conditions: PKC agonist treatment
Description: (§1) Human ESC lines H1, HUES7 and HUES9 were cultured on irradiated MEF feeder cells in DMEM-F12 supplemented with 2 mM L-glutamine, 1× nonessential amino acids, 20% serum replacement (Invitrogen) and 10 ng/ml basic Fibroblast growth factor (Invitrogen). Chemically-defined and feeder-free hESC culture was described previously (Yao, S. et al., Proc Natl Acad Sci USA 103 (18):6907-6912 (2006)). Briefly, hESCs were grown on Matrigel-coated tissue culture plates in N2B27-CDM (DMEM-F12 supplemented with 1× N2 supplements, 1× B27 supplements, 2 mM L-glutamine, 0.11 mM 2-mercaptoethanol, 1× nonessential amino acids, and 0.5 mg/ml BSA (fraction V)) and 20 ng/ml bFGF. Human ESCs were passaged every 5-6 days with 0.05% trypsin.
For clonal survival assays, single hESCs were diluted to clonal density and plated onto 96-well Matrigel-coated plate. For low-density survival assays, 500 cells were plated onto 96-well Matrigel-coated plate. To visualize hESC colonies, cultures were fixed in 4% paraformaldehyde in PBS for 5 min, washed once in PBS, then stained for alkaline phosphatase activity as described in manufacturer's instructions. ALP positive colonies were counted on an inverted microscope.

hESCs [2] = experiment: Cell adhesion assay of dissociated hESCs; type: cell-based, human
Description: Cell adhesion assays were performed in 96-well microtiter plates coated with Matrigel. After trypsin, hESCs were resuspended in the chemically-defined media containing the desired compounds. Cells were then added to the microtiter wells and incubated for 3 h at 37° C. Unbound and loosely bound cells were removed by shaking and washing, and the remaining cells were then fixed immediately. The wells were washed 3 times with 200 μl of H2O, and attached cells were stained with Crystal Violet (Sigma). The absorbance of each well at 570 nm was then measured. For experiments with blocking antibodies, cells were pre-incubated with antibodies on ice for 30 min, and adhesion assays were performed in the presence of antibodies. Each sample was assayed independently for three times.

β1 integrin = experiment: Active conformation of β1 integrin in hESCs (HUTS-21 binding, flow cytometry and immunostaining); type: cell-based, human; conditions: for level of HUTS-21 binding (activated β1 integrin): trypsin-dissociated hESCs
Source text: To gain insights into the mechanism of β1 integrin regulation by Tzv and Ptn, we investigated whether the compounds' effect is due to changes of integrin expression. In contrast to E-cadherin, β1 integrin was not cleaved by trypsin. […] Thus, Tzv and Ptn are likely to affect cell adhesion by modulating integrin activity (FIGS. 3d,e). To examine the effects of compound treatment on the activity of β1 integrin, we used the monoclonal antibody HUTS-21, which specifically binds to the activated form of the β1 integrin (Luque, A. et al., J Biol Chem 271 (19):11067-11075 (1996)).
(§2) To assess the expression of E-cadherin, activated integrin and SSEA4, dissociated cells (3×10^5) were washed with PBS and resuspended in PBS containing 2% goat serum. Cells were then incubated with the appropriate antibody for 1 h at 4° C., washed with the blocking solution, and labeled with FITC-conjugated secondary antibody for 30 min at 4° C. Cells were then washed and analyzed on a FACS Calibur flow cytometer.

ERK and AKT = experiment: Western blot of ERK and AKT phosphorylation in dissociated hESCs; type: cell-based, human
growth factor receptor = experiment: Western blot of growth factor receptor phosphorylation in hESCs; type: cell-based, human; conditions: hESCs treated for 2 h, DMSO control
[3] = test system: epithelial to mesenchymal transition/EMT; experiment: Epithelial to mesenchymal transition (EMT) / MET; type: cell-based
hESCs [4] = experiment: Long-term serial passage of hESCs in Tzv or Ptn-containing chemically-defined medium (morphology, pluripotency markers, karyotype); type: cell-based, human; conditions: serially passaged for more than 20 generations in compound-containing chemically-defined medium
Description: as §1
Immunostaining was performed as described previously (Yao, S. et al., Proc Natl Acad Sci USA 103 (18):6907-6912 (2006)). Briefly, cells were fixed with 4% paraformaldehyde at room temperature (RT) for 15 min. The cells were then incubated at RT in blocking buffer for 1 hour. […]
Teratoma formation experiments were performed by injecting 3-5 million hESCs (maintained in the presence of compounds Tvz or Ptn) under the kidney capsule of nude mice. After 4-5 weeks, all mice developed teratomas, which were removed and then immunohistologically analyzed by The Scripps Research Institute Research Histology Service and Animal Resources. […]

[5] = test system: human embryonic stem cell, mouse embryonic stem cell, multiple neural stem cells, skin stem cells, mesenchymal stem cells, hematopoietic stem cells, stromal …; experiment: Survival and anti-differentiation of stem cells ex vivo after isolation; type: cell-based; conditions: contacted immediately after isolation of the cells
Source text: In some embodiments, the invention provides methods of promoting survival and anti-differentiation in stem cells ex-vivo.

hESCs [6] = experiment: Cell death / survival analysis of dissociated hESCs in adherent (Matrigel) or suspension culture; type: cell-based, human; conditions: for survival of dissociated hESCs in adherent culture: Matrigel-coated plate; for survival of dissociated hESCs in adherent culture / survival of dissociated hESCs in suspension culture: 2 μM
Description: as §1
The hESCs under different treatments were dissociated by trypsin and fixed by 4% paraformaldehyde. And the staining was carried out according to the manufacturer's instructions (MBL Laboratories, Watertown, Mass.). After staining, samples were analysed by flow cytometry using a FACS Calibur flow cytometer (BD).

[7] = test system: mouse P1 cortical explants; experiment: Neurite / axon outgrowth from cortical explants; type: cell-based
Description: Compounds of formula I and III (i.e., Tvz and Ptn) are effective at promoting axonal regeneration and functional recovery in injured central nervous system. […] Tzv (3 μM) was tested on mouse P1 cortical explants, with axon outgrowth as an outcome read-out. Tzv was added to the medium 20 minutes after plating, with DMSO as a control. […] Accordingly, in some embodiments, a compound of the present invention is administered to an individual having a central nervous system injury or who is in need or would otherwise benefit from axonal regeneration.

E-cadherin = E-cadherin level in hESCs after trypsin dissociation (Western blot, flow cytometry, semiquantitative RT-PCR); type: cell-based, human
Description: as §2

[8] = test system: E-cadherins to EGFR1 and ERB2; experiment: Immunoprecipitation of E-cadherins with EGFR1 and ERB2 in hESCs; type: cell-based, human
Source text: ALP detection kit and integrin antibodies were from Chemicon. AG825 (Erb2 inhibitor), AG1478 (EGFR inhibitor), PPP (IGFR1 inhibitor) were purchased from Calbiochem. Antibodies raised against the intracytoplasmic tail of E-cadherins (Transduction Laboratories, Lexington, Ky.) were used for immunoprecipitation. The antibody TS2/16 was from Pierce. Antibodies to the extracellular domain of E-cadherin molecule were from Zymed (Carlsbad). Antibodies against extracellular signal-regulated kinase/MAPK, EGFR1, ERB2, GADPH and phosphorylated form of AKT were from Cell Signaling. Mouse monoclonal anti-phosphotyrosine (4G-10 clone) was from Upstate Biotechnology. Ptn and Tzv were added to culture medium at 2 μM.

[9] = test system: primary human pancreatic islets/beta cells; experiment: Cell death of dispersed primary pancreatic islets/beta cells plated as single cells on matrigel or laminin; type: cell-based; conditions: 1-2 mM added to the media
Description: For example, the inventors dispersed primary human pancreatic islets/beta cells plated as single cells onto a tissue culture plate that was coated with matrigel or laminin. […] Accordingly, in some embodiments, a compound of the present invention is administered to an individual in need of pancreatic beta and/or islet cells, wherein administration of the compound results in an increase in the number of beta or islet cells in the individual.

Row | Structure (SMILES) | induction of MET and inhibition of EMT [3] | maintenance of hESC morphology, pluripotency markers and karyotype (hESCs [4]) | adhesion of dissociated hESCs to Matrigel or laminin (hESCs [2]) | adhesion of hESCs to gelatin or poly-lysine (hESCs [2]) | survival and anti-differentiation of stem cells [5] | level of HUTS-21 binding (activated β1 integrin) (β1 integrin) | survival of dissociated hESCs in adherent culture (hESCs [6]) | survival of dissociated hESCs in suspension culture (hESCs [6]) | also measured
1 | CCCCCCCCCCCCCC(=O)O[C@@H]1[C@@H](C)[C@@]2(O)[C@@H](C=C(CO)C[C@]3(O)C(=O)C(C)=C[C@@H]23)[C@@H]2C(C)(C)[C@]12OC(C)=O [PMA, phorbol 12-myristate 13-acetate, reference compound] | – | – | – | – | – | – | – | – | colony formation of dissociated hESCs (hESCs [1]): substantial increase; cell adhesion of dissociated hESCs (hESCs [2]; PKC agonist treatment): substantial increase; integrin activation (β1 integrin; dissociated hESCs, PMA 10 nM (FIG. 3k)): integrin activation
2 | O=S(=O)(NCC1CC1)c1ccc(Nc2nccc(N3CCCc4cc(O)ccc43)n2)cc1 [Ptn, N-(cyclopropylmethyl)-4-(4-(6-hydroxy-3,4-dihydroquinolin-1(2H)-yl)pyrimidin-2-ylamino)benzenesulfonamide] | induce MET (the reverse of EMT) and inhibit EMT | maintained the characteristic morphology of hESCs, the expression of typical pluripotency markers, and normal karyotype | dramatically increased adhesion | not affected | effective in promoting survival and anti-differentiation | increased | promoted survival; also recorded: dramatic effect on survival | no effect | phosphorylation of ERK and AKT (ERK and AKT): increased; phosphorylation of growth factor receptor (growth factor receptor): significantly increased
3 | O=C(NCc1ccccc1)c1csc(Nc2ccncn2)n1 [Tzv, N-benzyl-2-(pyrimidin-4-ylamino)thiazole-4-carboxamide] | induce MET (the reverse of EMT) and inhibit EMT | maintained the characteristic morphology of hESCs, the expression of typical pluripotency markers, and normal karyotype | dramatically increased adhesion | not affected | effective in promoting survival and anti-differentiation | increased | greatly improved survival; also recorded: dramatic effect on survival | greatly improved survival | axon outgrowth ([7]; 3 μM, added 20 minutes after plating, observed 4 days, DMSO control): dramatic effect in promoting axon outgrowth; neurite outgrowth from primary neuronal cells ([7]; primary neuronal cells from mice): promote neurite outgrowth; full-length E-cadherin expression (Western blot) (E-cadherin; hESCs after trypsin dissociation): significantly increased; cell surface E-cadherins (flow cytometry) (E-cadherin; hESCs after trypsin treatment): significantly increased; E-cadherin transcripts (semiquantitative RT-PCR) (E-cadherin; vs mock controls): comparable amounts; binding of E-cadherins to EGFR1 and ERB2 [8]: induced binding; cell death of pancreatic islets/beta cells [9]: cell death was inhibited; cell aggregate formation in suspension (hESCs [6]; hESCs grown in suspension): formed nice cell aggregates
4 | CN(C)CCCn1cc(C2=C(c3c[nH]c4ccccc34)C(=O)NC2=O)c2ccccc21 [bisindolylmaleimide I, reference compound] | – | – | – | – | – | – | – | – | effect on increased cell adhesion induced by Ptn (hESCs [2]; in combination with Ptn): antagonize; effect on cell adhesion induced by Tzv (hESCs [2]; in combination with Tzv): no effect
